We go through one substance from patent US10697019B2, “Method of diagnosis and prognosis” (IMPERIAL COLLEGE INNOVATIONS LIMITED, priority 2011, dated 2020).

[ ]: non-standard residue; d: D form. The star is where a group is joined. Cbz = O=C(OCc1ccccc1)*

This test has as its system panel of 29 cancer cell lines. The test can be described thus: [3H]thymidine incorporation assay of Z-DTP-induced killing, correlated with Gadd45β mRNA expression (qRT-PCR). Type of test: cell-based. The settings on record: 10 μM Z-DTP2 for 144 hrs, Pearson correlation p<0.01. From the text: The significance of the correlation co-efficient between the two parameters is p<0.01 (Pearson correlation as calculated by GraphPad software).
For example, primary cell from multiple myeloma patients can be analysed for levels of Gadd45β expression, and patients with high levels of this expression can be deemed as those who will receive the most benefit from treatment with Gadd45β inhibitors.
In order to determine the basis for the different sensitivity of tumour cell lines to Z-DTP-induced killing, we measured levels of Gadd45β expression in a panel of 29 tumour cell lines or different tissues of origin by using quantitative real-time polymerase chain reaction (qRT-PCT) and correlated these levels with the degree of susceptibility of these cell lines to the cytotoxic activity of Z-DTPs. […] Experimental Ct values were normalized to β-actin, and relative mRNA expression calculated versus a reference sample (i.e. mRNA from HEK-293T cells). The sensitivity of cancer cell lines to Z-DTP-induced killing was analysed as described above by performing [^3H]thymidine incorporation assays after treatment of the cells with 10 μM of Z-DTP2 for 144 hrs. […] The significance of the correlation coefficient between the 2 parameters' domain was calculated by Pearson correlation, which quantifies the association between two variables, using the GraphPad software.

Regarding “Z-DTP2: tetrapeptide Tyr-Glu-Arg-Phe, amino acids in the D configuration, NH2 group at the C terminal, benzyloxycarbonyl group at the N terminal; specific Gadd45β inhibitor (Cbz-[dY][dE][dR][dF]-NH2)”, the “cancer cell sensitivity to Z-DTP-induced killing versus levels of endogenous Gadd45β expression” value is on record as “correlates with a very high degree of statistical significance”.
